From patent US10428080B2, “TBK/IKK inhibitor compounds and uses thereof” (Merck Patent GmbH, priority 2015, dated 2019)
pIC50: −log10 of the molar value. Structures can show the parent of a compound that is named as a salt.

Assays:
IKKε = target: T1, IKKε (Homo sapiens, UniProt Q14164); assay: IKKe Biochemical Assay; settings: read-out: IKKε IC50
T1 sequence (Q14164 1-716): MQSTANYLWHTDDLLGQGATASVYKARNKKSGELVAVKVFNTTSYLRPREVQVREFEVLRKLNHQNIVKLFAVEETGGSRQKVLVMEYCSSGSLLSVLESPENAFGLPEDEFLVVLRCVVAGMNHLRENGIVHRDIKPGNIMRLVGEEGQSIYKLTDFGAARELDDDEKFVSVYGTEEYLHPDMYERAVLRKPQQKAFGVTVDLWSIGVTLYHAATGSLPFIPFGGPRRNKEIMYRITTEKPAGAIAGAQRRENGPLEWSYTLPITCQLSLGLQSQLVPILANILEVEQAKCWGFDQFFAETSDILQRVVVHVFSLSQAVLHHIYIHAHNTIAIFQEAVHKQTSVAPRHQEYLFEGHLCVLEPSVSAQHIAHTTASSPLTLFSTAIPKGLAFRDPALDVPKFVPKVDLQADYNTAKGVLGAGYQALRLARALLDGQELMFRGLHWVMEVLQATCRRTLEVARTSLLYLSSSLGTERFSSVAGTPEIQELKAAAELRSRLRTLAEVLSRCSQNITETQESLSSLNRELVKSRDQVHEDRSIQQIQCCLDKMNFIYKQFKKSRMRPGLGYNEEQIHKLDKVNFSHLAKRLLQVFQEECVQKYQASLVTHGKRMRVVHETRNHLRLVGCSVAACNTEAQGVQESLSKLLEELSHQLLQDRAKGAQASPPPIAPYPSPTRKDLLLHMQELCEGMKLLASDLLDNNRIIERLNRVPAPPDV
Procedure: (§1) Test compounds were transferred into Labcyte polypropylene 384 well plates (P055-25) and diluted to 3 mM using DMSO. 3 mM test compounds were dispensed using Labcyte ECHO dose response module into (Greiner 784075 plates (columns 3-12 and 13-22, 10 point 1:4) so that high concentration was 30 uM final. 100 uM of a reference compound (1 uM final high concentration). Backfilling was performed if necessary so that all wells contain 1% DMSO final: […]
(§2) add 75 nl DMSO/well into columns 1, 2 and 24 using Labcyte Echo. add 75 nl 1.0 mM staurosporine/well into column 23 using Labcyte Echo (10 uM final) add 4.5 ul enzyme/well using multidrop dispenser add 3 ul substrate/well using multidrop dispenser incubate at 25° C. for 90 min. add 7.5 ul 2× stop buffer read on labchip ez reader II using IKKε. job
(§3) Raw data files were opened in the Caliper LabChip Reviewer program (Version 3.0.265.0 SP2) and peak assignments were adjusted to reflect “substrate first” with the software's post-run analysis options. A spline-fit baseline was applied using the software's analysis algorithm.

TBK1 = target: T2, TBK1 (Homo sapiens, UniProt Q9UHD2); assay: TBK Biochemical Assay; settings: read-out: TBK1 IC50
T2 sequence (Q9UHD2 1-729): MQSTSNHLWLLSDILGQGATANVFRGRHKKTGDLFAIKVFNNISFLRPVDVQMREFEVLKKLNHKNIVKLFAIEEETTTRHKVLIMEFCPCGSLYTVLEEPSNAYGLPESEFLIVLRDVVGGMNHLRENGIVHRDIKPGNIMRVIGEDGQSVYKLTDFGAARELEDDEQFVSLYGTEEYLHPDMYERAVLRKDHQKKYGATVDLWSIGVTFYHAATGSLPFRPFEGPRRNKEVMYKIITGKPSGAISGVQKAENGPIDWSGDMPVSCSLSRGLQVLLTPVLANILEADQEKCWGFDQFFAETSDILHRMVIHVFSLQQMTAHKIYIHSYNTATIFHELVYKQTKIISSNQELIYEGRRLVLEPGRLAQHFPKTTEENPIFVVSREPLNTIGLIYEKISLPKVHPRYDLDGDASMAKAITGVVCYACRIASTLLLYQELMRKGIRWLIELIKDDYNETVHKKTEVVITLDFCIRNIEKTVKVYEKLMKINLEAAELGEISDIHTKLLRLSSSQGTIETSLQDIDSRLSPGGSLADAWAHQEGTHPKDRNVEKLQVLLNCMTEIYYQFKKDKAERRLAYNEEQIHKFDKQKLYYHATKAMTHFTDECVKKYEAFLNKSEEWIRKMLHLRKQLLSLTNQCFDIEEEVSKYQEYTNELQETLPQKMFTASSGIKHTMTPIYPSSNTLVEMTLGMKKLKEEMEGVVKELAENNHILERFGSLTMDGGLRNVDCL
Procedure: Example 482: TBK Biochemical Assay
as §1, with “Greiner” for “(Greiner”
as §2, with “C. in Heidolph incubator” for “C.”, “buffer using multidrop dispenser” for “buffer”, “TBK1.job” for “IKKε. job”
as §3

SMILES	pIC50 (IKKε)	pIC50 (TBK1)
CN(C)C(=O)c1ccc(-c2cc3nccc(-c4ccc(NC5CCOCC5)c(C#N)c4)c3o2)nc1 [Compound 244, 6-(7-(3-cyano-4-(tetrahydro-2H-pyran-4-ylamino)phenyl)furo[3,2-b]pyridin-2-yl)-N,N-dimethylnicotinamide]	6.00 to 7.00	6.00 to 7.00
COc1cc(C(=O)N2CCCC2C(F)F)ccc1-c1cc2nccc(-c3ccc(OC4CCOCC4)c(C#N)c3)c2o1 (stereo not drawn) [Compound 89, 5-{2-[4-(2-Difluoromethyl-pyrrolidine-1-carbonyl)-2-methoxy-phenyl]-furo[3,2-b]pyridin-7-yl}-2-(tetrahydro-pyran-4-yloxy)-benzonitrile]	> 7.00	> 7.00
CCOC(=O)c1ccc(-c2cc3nccc(-c4ccc(N5CC[C@H](F)C5)c(C#N)c4)c3o2)cc1 [Compound 187, 4-{7-[3-Cyano-4-((S)-3-fluoro-pyrrolidin-1-yl)-phenyl]-furo[3,2-b]pyridin-2-yl}-benzoic acid ethyl ester]	6.00 to 7.00	5.30 to 6.00
CCCN(C)C(=O)c1ccc(-c2cc3nccc(-c4ccc(OC5CCOCC5)c(C#N)c4)c3o2)c(OC)c1 [Compound 257, 4-(7-(3-cyano-4-(tetrahydro-2H-pyran-4-yloxy)phenyl)furo[3,2-b]pyridin-2-yl)-3-methoxy-N-methyl-N-propylbenzamide hydrochloride]	> 7.00	> 7.00
COc1cc(C(=O)N(C)C)cnc1-c1cc2ncc(Cl)c(-c3ccc(OC4CCOCC4)c(C#N)c3)c2o1 [Compound 336, 6-[6-chloro-7-[3-cyano-4-(oxan-4-yloxy)phenyl]furo[3,2-b]pyridin-2-yl]-5-methoxy-N,N-dimethylpyridine-3-carboxamide hydrochloride]	5.30 to 6.00	5.30 to 6.00
CC1CC(Oc2ccc(-c3ccnc4cc(-c5ccc(C(=O)N(C)C)cc5)oc34)cc2C#N)CCO1 (stereo not drawn) [Compound 184, 4-{7-[3-Cyano-4-(2-methyl-tetrahydro-pyran-4-yloxy)-phenyl]-furo[3,2-b]pyridin-2-yl}-N,N-dimethyl-benzamide]	6.00 to 7.00	5.30 to 6.00
CN(C)C(=O)c1ccc(-c2cc3nccc(-c4ccc(O[C@H]5CCCOC5)c(C#N)c4)c3o2)cc1 [Compound 174, 4-(7-{3-Cyano-4-[(S)-(tetrahydro-pyran-3-yl)oxy]-phenyl}-furo[3,2-b]pyridin-2-yl)-N,N-dimethyl-benzamide]	6.00 to 7.00	6.00 to 7.00
CCN(C)C(=O)c1ccc(-c2cc3nccc(-c4ccc(NC5CCOCC5)c(C#N)c4)c3o2)c(OC)c1 [Compound 262, 4-(7-(3-cyano-4-(tetrahydro-2H-pyran-4-ylamino)phenyl)furo[3,2-b]pyridin-2-yl)-N-ethyl-3-methoxy-N-methylbenzamide]	> 7.00	> 7.00
CCN(CC)C(=O)c1ccc(-c2cc3nccc(-c4ccc(OC5CCOCC5)c(C#N)c4)c3o2)c(OC)c1 [Compound 256, 4-(7-(3-cyano-4-(tetrahydro-2H-pyran-4-yloxy)phenyl)furo[3,2-b]pyridin-2-yl)-N,N-diethyl-3-methoxybenzamide hydrochloride]	> 7.00	> 7.00
COc1cc(C(=O)N2CC3CCCC3C2)ccc1-c1cc2nccc(-c3ccc(NC4CCOCC4)c(C#N)c3)c2o1 (stereo not drawn) [Compound 137, 5-{2-[4-(Hexahydro-cyclopenta[c]pyrrole-2-carbonyl)-2-methoxy-phenyl]-furo[3,2-b]pyridin-7-yl}-2-(tetrahydro-pyran-4-ylamino)-benzonitrile]	> 7.00	> 7.00
COc1cc(C(=O)N(C)C)ccc1-c1cc2nccc(-c3ccc(OC4CC(C)(C)NC(C)(C)C4)c(C#N)c3)c2o1 [Compound 229, 4-(7-(3-cyano-4-(2,2,6,6-tetramethylpiperidin-4-yloxy)phenyl)furo[3,2-b]pyridin-2-yl)-3-methoxy-N,N-dimethylbenzamide]	6.00 to 7.00	6.00 to 7.00
COc1cc(C(=O)N(C)C2CCNCC2)ccc1-c1cc2nccc(-c3ccc(OC4CCOCC4)c(C#N)c3)c2o1 [Compound 41, 4-(7-[3-Cyano-4-(tetrahydro-pyran-4-yloxy)-phenyl]-furo[3,2-b]pyridin-2-yl)-3-methoxy-N-methyl-N-piperidin-4-yl-benzamide hydrochloride]	> 7.00	> 7.00
COc1cc(C(=O)N2CC3COCC3C2)ncc1-c1cc2nccc(-c3ccc(NC4CCOCC4)c(C#N)c3)c2o1 (stereo not drawn) [Compound 421, 5-[2-[6-([hexahydro-1H-furo[3,4-c]pyrrol-5-yl]carbonyl)-4-methoxypyridin-3-yl]furo[3,2-b]pyridin-7-yl]-2-[(oxan-4-yl)amino]benzonitrile]	> 7.00	> 7.00
COc1cc(C(=O)N(C)C)cnc1-c1cc2nccc(-c3ncc(OC4CCOCC4)c(C#N)n3)c2o1 [Compound 396, 6-[7-[4-cyano-5-(oxan-4-yloxy)pyrimidin-2-yl]furo[3,2-b]pyridin-2-yl]-5-methoxy-N,N-dimethylpyridine-3-carboxamide]	6.00 to 7.00	6.00 to 7.00
N#Cc1cc(-c2ccnc3cc(-c4ccc(C(=O)O)cc4)oc23)ccc1Oc1cccc(F)c1 [Compound 188, 4-{7-[3-Cyano-4-(3-fluoro-phenoxy)-phenyl]-furo[3,2-b]pyridin-2-yl}-benzoic acid]	5.30 to 6.00	5.30 to 6.00
COc1cc(C(=O)N(C)CCO)cnc1-c1cc2ncc(C3CC3)c(-c3ccc(OC4CCOCC4)c(C#N)n3)c2o1 [Compound 363, 6-[7-[6-cyano-5-(oxan-4-yloxy)pyridin-2-yl]-6-cyclopropylfuro[3,2-b]pyridin-2-yl]-N-(2-hydroxyethyl)-5-methoxy-N-methylpyridine-3-carboxamide hydrochloride]	< 5.30	< 5.30
COc1cc(C(=O)N(C)CCO)cnc1-c1cc2ncc(F)c(-c3ccc(OC4CCOCC4)c(C#N)n3)c2o1 [Compound 354, 6-[7-[6-cyano-5-(oxan-4-yloxy)pyridin-2-yl]-6-fluorofuro[3,2-b]pyridin-2-yl]-N-(2-hydroxyethyl)-5-methoxy-N-methylpyridine-3-carboxamide hydrochloride]	5.30 to 6.00	6.00 to 7.00
CC1CC(Oc2ccc(-c3ccnc4cc(-c5ccc(C(=O)N(C)C)cc5)oc34)cc2C#N)CC(C)O1 (stereo not drawn) [Compound 213, 4-{7-[3-Cyano-4-(2,6-dimethyl-tetrahydro-pyran-4-yloxy)-phenyl]-furo[3,2-b]pyridin-2-yl}-N,N-dimethyl-benzamide]	< 5.30	–
COC(=O)c1ccc(-c2cc3nccc(-c4ccc(OC5CC6(COC6)C5)c(C#N)c4)c3o2)cc1 [Compound 204]	6.00 to 7.00	–
